Experimental data published in ChEMBL document CHEMBL1134488, “Potent reversible inhibitors of the protein tyrosine phosphatase CD45” (J Med Chem, 2001).
Where a SMILES comes first, the peptide text is derived from it. The star is where a group is joined. Phenanthrenequinone2carbonyl = O=C1C(=O)c2cc(C(=O)*)ccc2-c2ccccc21; 3Phenanthroyl(9,10-dioxo) = O=C1C(=O)c2ccc(C(=O)*)cc2-c2ccccc21; X1 = O=C1C(=O)c2cc(N*)ccc2-c2ccccc21

Experiments:
[1] = test system: T-cell; experiment: Cytotoxicity measured against human T-cells; type: functional
[2] = test system: T-cell; experiment: In vitro inhibition of human T-cell proliferation; type: functional, cell-based

O=C1C(=O)c2ncccc2-c2ccccc21
CC50 [1]: 7 µM
IC50 [2]: 0.4 µM

O=C1C=C(c2cc(Cl)cc(Cl)c2)c2ccccc2C1=O
CC50 [1]: 5.5 µM
IC50 [2]: 0.3 µM

O=C1C=C(c2c(-c3ccccc3)[nH]c3ccccc23)c2ccccc2C1=O
CC50 [1]: 16 µM
IC50 [2]: 2.2 µM

CCOc1ccccc1-c1ccc2c(c1)C(=O)C(=O)c1ccccc1-2
CC50 [1]: > 30 µM
IC50 [2]: 0.7 µM

O=C1C(=O)c2cc([N+](=O)[O-])ccc2-c2ccc([N+](=O)[O-])cc21
CC50 [1]: 8 µM
IC50 [2]: 0.5 µM

O=C(O)c1ccc2c(c1)C(=O)C(=O)c1ccccc1-2
CC50 [1]: > 30 µM
IC50 [2]: > 30 µM

O=C1C=C(c2ccccc2Cl)c2ccccc2C1=O
CC50 [1]: 12.4 µM
IC50 [2]: 0.3 µM

O=C(O)CNC(=O)c1ccc2c(c1)-c1ccccc1C(=O)C2=O
CC50 [1]: > 30 µM
IC50 [2]: 6.5 µM

O=C(O)c1ccc2c(c1)-c1ccccc1C(=O)C2=O
IC50 [2]: > 30 µM

O=C1C(=O)c2cc([N+](=O)[O-])ccc2-c2ccccc21
CC50 [1]: 10 µM
IC50 [2]: 1.6 µM

Nc1cccc2c1-c1ccccc1C(=O)C2=O
CC50 [1]: 9 µM
IC50 [2]: 0.2 µM

Cn1cc(C2=CC(=O)C(=O)c3ccccc32)c2ccccc21
CC50 [1]: > 30 µM
IC50 [2]: 1.5 µM

O=C1C(=O)c2cccc([N+](=O)[O-])c2-c2ccccc21
CC50 [1]: 10 µM

COC(=O)CCCC(=O)Nc1ccc2c(c1)-c1ccccc1C(=O)C2=O
CC50 [1]: 9 µM
IC50 [2]: 1.6 µM

O=C1C=C(c2cccc([N+](=O)[O-])c2)c2ccccc2C1=O
CC50 [1]: 4 µM
IC50 [2]: 0.4 µM

CCOC1=CC(=O)C(=O)c2ccccc21
CC50 [1]: > 30 µM
IC50 [2]: > 30 µM

O=C1C(=O)c2ccc([N+](=O)[O-])cc2-c2ccccc21
CC50 [1]: 2.8 µM
IC50 [2]: 0.2 µM

C=CCOC1=CC(=O)C(=O)c2ccccc21
CC50 [1]: > 30 µM
IC50 [2]: > 30 µM

O=C1C=Cc2ccc(O)cc2C1=O
CC50 [1]: > 30 µM
IC50 [2]: > 30 µM

CCCC(=O)Nc1ccc2c(c1)C(=O)C(=O)c1ccccc1-2
CC50 [1]: 8.2 µM
IC50 [2]: 1.1 µM

O=C1C(=O)c2ccc(NC(=O)c3ccccc3C(F)(F)F)cc2-c2ccccc21
CC50 [1]: 14 µM

O=C1C=C(c2ccccc2)c2ccccc2C1=O
CC50 [1]: 12 µM
IC50 [2]: 0.2 µM

O=C1C=Cc2cc(C(=O)c3ccccc3)ccc2C1=O
CC50 [1]: > 30 µM
IC50 [2]: 11 µM

O=C1C(=O)c2cc(-c3ccsc3)ccc2-c2ccccc21
CC50 [1]: 7.3 µM
IC50 [2]: 1.7 µM

COC(=O)c1ccc2c(c1)C=CC(=O)C2=O
CC50 [1]: > 30 µM
IC50 [2]: 7.1 µM

COC(=O)c1cccc2c1C=CC(=O)C2=O
CC50 [1]: > 30 µM

COC(=O)CCC(=O)Nc1ccc2c(c1)-c1ccccc1C(=O)C2=O
CC50 [1]: 18 µM

Nc1ccc2c(c1)-c1ccccc1C(=O)C2=O
CC50 [1]: 17 µM

O=C1C(=O)c2cc(-c3ccc4c(c3)OCO4)ccc2-c2ccccc21
CC50 [1]: 5 µM
IC50 [2]: 1.7 µM

Nc1cccc2c1C(=O)C(=O)c1ccccc1-2
CC50 [1]: 9.6 µM
IC50 [2]: 7.8 µM

O=C1C=C(Br)c2ccccc2C1=O
CC50 [1]: > 30 µM
IC50 [2]: 22 µM

O=C1C(=O)c2ccsc2-c2ccccc21
CC50 [1]: 3.5 µM

Cc1ccc(S(=O)(=O)Nc2ccc3c(c2)C(=O)C(=O)c2ccccc2-3)cc1
CC50 [1]: > 30 µM
IC50 [2]: 6.4 µM

Cc1ccc(S(=O)(=O)N(c2ccc3c(c2)C(=O)C(=O)c2ccccc2-3)S(=O)(=O)c2ccc(C)cc2)cc1
CC50 [1]: 5.3 µM

O=C1C=C(c2ccc(Br)cc2)c2ccccc2C1=O
CC50 [1]: 3 µM
IC50 [2]: 0.2 µM

CC(=O)N[C@@H](C)C(=O)N[C@H](C(=O)N[C@@H](CCC(=O)O)C(=O)NCC(=O)N[C@@H](CCC(N)=O)C(=O)N[C@@H](CC(=O)Nc1ccc2c(c1)C(=O)C(=O)c1ccccc1-2)C(=O)O)[C@@H](C)O (Ac-ATEGQD(X1)-OH)
IC50 [2]: 21.4 µM

CC(=O)N[C@@H](Cc1ccccc1)C(=O)N[C@H](C(=O)N[C@@H](C)C(=O)N[C@H](C(=O)N[C@@H](CCC(=O)O)C(=O)NCC(=O)N[C@@H](CCC(N)=O)C(=O)N[C@@H](CC(=O)Nc1ccc2c(c1)C(=O)C(=O)c1ccccc1-2)C(=O)O)[C@@H](C)O)[C@@H](C)O (Ac-FTATEGQD(X1)-OH)
IC50 [2]: > 30 µM

CC(=O)N[C@H](C(=O)N[C@@H](C)C(=O)N[C@H](C(=O)N[C@@H](CCC(=O)O)C(=O)NCC(=O)N[C@@H](CCC(N)=O)C(=O)N[C@@H](CC(=O)Nc1ccc2c(c1)C(=O)C(=O)c1ccccc1-2)C(=O)O)[C@@H](C)O)[C@@H](C)O (Ac-TATEGQD(X1)-OH)
IC50 [2]: 23 µM

O=C(O)CC[C@H](NC(=O)c1ccc2c(c1)C(=O)C(=O)c1ccccc1-2)C(=O)N[C@@H](CCC(=O)O)C(=O)N1CCC[C@H]1C(=O)N[C@@H](CCC(=O)O)C(=O)NCC(=O)O (Phenanthrenequinone2carbonyl-EEPEG-OH)
CC50 [1]: > 30 µM
IC50 [2]: 14.2 µM

N=C(N)NCCC[C@H](NC(=O)[C@@H]1CCCN1C(=O)[C@H](CCC(=O)O)NC(=O)[C@H](CCC(=O)O)NC(=O)c1ccc2c(c1)C(=O)C(=O)c1ccccc1-2)C(=O)NCC(=O)O (Phenanthrenequinone2carbonyl-EEPRG-OH)
CC50 [1]: > 30 µM
IC50 [2]: 16 µM

O=C(O)CC[C@H](NC(=O)c1ccc2c(c1)C(=O)C(=O)c1ccccc1-2)C(=O)NCC(=O)N1CCC[C@H]1C(=O)N[C@@H](CCC(=O)O)C(=O)NCC(=O)O (Phenanthrenequinone2carbonyl-EGPEG-OH)
CC50 [1]: > 30 µM
IC50 [2]: 8.8 µM

N=C(N)NCCC[C@H](NC(=O)[C@@H]1CCCN1C(=O)CNC(=O)[C@H](CCC(=O)O)NC(=O)c1ccc2c(c1)C(=O)C(=O)c1ccccc1-2)C(=O)NCC(=O)O (Phenanthrenequinone2carbonyl-EGPRG-OH)
CC50 [1]: > 30 µM
IC50 [2]: 23 µM

N=C(N)NCCC[C@H](NC(=O)[C@H](CCC(=O)O)NC(=O)c1ccc2c(c1)C(=O)C(=O)c1ccccc1-2)C(=O)N1CCC[C@H]1C(=O)N[C@@H](CCC(=O)O)C(=O)NCC(=O)O (Phenanthrenequinone2carbonyl-ERPEG-OH)
CC50 [1]: > 30 µM
IC50 [2]: 3 µM

N=C(N)NCCC[C@H](NC(=O)[C@@H]1CCCN1C(=O)[C@H](CCCNC(=N)N)NC(=O)[C@H](CCC(=O)O)NC(=O)c1ccc2c(c1)C(=O)C(=O)c1ccccc1-2)C(=O)NCC(=O)O (Phenanthrenequinone2carbonyl-ERPRG-OH)
CC50 [1]: > 30 µM
IC50 [2]: 19 µM

O=C(O)CC[C@H](NC(=O)[C@@H]1CCCN1C(=O)[C@H](CCC(=O)O)NC(=O)CNC(=O)c1ccc2c(c1)C(=O)C(=O)c1ccccc1-2)C(=O)NCC(=O)O (Phenanthrenequinone2carbonyl-GEPEG-OH)
CC50 [1]: > 30 µM
IC50 [2]: 9 µM

N=C(N)NCCC[C@H](NC(=O)[C@@H]1CCCN1C(=O)[C@H](CCC(=O)O)NC(=O)CNC(=O)c1ccc2c(c1)C(=O)C(=O)c1ccccc1-2)C(=O)NCC(=O)O (Phenanthrenequinone2carbonyl-GEPRG-OH)
CC50 [1]: > 30 µM
IC50 [2]: 20 µM

O=C(O)CC[C@H](NC(=O)[C@@H]1CCCN1C(=O)CNC(=O)CNC(=O)c1ccc2c(c1)C(=O)C(=O)c1ccccc1-2)C(=O)NCC(=O)O (Phenanthrenequinone2carbonyl-GGPEG-OH)
CC50 [1]: > 30 µM
IC50 [2]: 19.3 µM

N=C(N)NCCC[C@H](NC(=O)[C@@H]1CCCN1C(=O)CNC(=O)CNC(=O)c1ccc2c(c1)C(=O)C(=O)c1ccccc1-2)C(=O)NCC(=O)O (Phenanthrenequinone2carbonyl-GGPRG-OH)
CC50 [1]: > 30 µM
IC50 [2]: 16 µM

N=C(N)NCCC[C@H](NC(=O)CNC(=O)c1ccc2c(c1)C(=O)C(=O)c1ccccc1-2)C(=O)N1CCC[C@H]1C(=O)N[C@@H](CCC(=O)O)C(=O)NCC(=O)O (Phenanthrenequinone2carbonyl-GRPEG-OH)
CC50 [1]: > 30 µM
IC50 [2]: 5.5 µM

N=C(N)NCCC[C@H](NC(=O)[C@@H]1CCCN1C(=O)[C@H](CCCNC(=N)N)NC(=O)CNC(=O)c1ccc2c(c1)C(=O)C(=O)c1ccccc1-2)C(=O)NCC(=O)O (Phenanthrenequinone2carbonyl-GRPRG-OH)
CC50 [1]: > 30 µM
IC50 [2]: > 30 µM

N=C(N)NCCC[C@H](NC(=O)c1ccc2c(c1)C(=O)C(=O)c1ccccc1-2)C(=O)N[C@@H](CCC(=O)O)C(=O)N1CCC[C@H]1C(=O)N[C@@H](CCC(=O)O)C(=O)NCC(=O)O (Phenanthrenequinone2carbonyl-REPEG-OH)
CC50 [1]: > 30 µM
IC50 [2]: 5 µM

N=C(N)NCCC[C@H](NC(=O)c1ccc2c(c1)C(=O)C(=O)c1ccccc1-2)C(=O)NCC(=O)N1CCC[C@H]1C(=O)N[C@@H](CCC(=O)O)C(=O)NCC(=O)O (Phenanthrenequinone2carbonyl-RGPEG-OH)
CC50 [1]: > 30 µM
IC50 [2]: 3.3 µM

N=C(N)NCCC[C@H](NC(=O)c1ccc2c(c1)C(=O)C(=O)c1ccccc1-2)C(=O)NCC(=O)N1CCC[C@H]1C(=O)N[C@@H](CCCNC(=N)N)C(=O)NCC(=O)O (Phenanthrenequinone2carbonyl-RGPRG-OH)
CC50 [1]: > 30 µM
IC50 [2]: 14 µM

N=C(N)NCCC[C@H](NC(=O)c1ccc2c(c1)C(=O)C(=O)c1ccccc1-2)C(=O)N[C@@H](CCCNC(=N)N)C(=O)N1CCC[C@H]1C(=O)N[C@@H](CCC(=O)O)C(=O)NCC(=O)O (Phenanthrenequinone2carbonyl-RRPEG-OH)
CC50 [1]: > 30 µM
IC50 [2]: 11 µM

N=C(N)NCCC[C@H](NC(=O)c1ccc2c(c1)C(=O)C(=O)c1ccccc1-2)C(=O)N[C@@H](CCCNC(=N)N)C(=O)N1CCC[C@H]1C(=O)N[C@@H](CCCNC(=N)N)C(=O)NCC(=O)O (Phenanthrenequinone2carbonyl-RRPRG-OH)
CC50 [1]: > 30 µM
IC50 [2]: 21 µM

NC(=O)CC[C@H](NC(=O)[C@H](CCC(=O)O)NC(=O)c1ccc2c(c1)-c1ccccc1C(=O)C2=O)C(=O)NCC(=O)N[C@@H](CCC(N)=O)C(=O)N1CCC[C@H]1C(=O)O ({3Phenanthroyl(9,10-dioxo)}-EQGQP-OH)
CC50 [1]: > 30 µM
IC50 [2]: 7 µM

NC(=O)CC[C@H](NC(=O)[C@@H]1CCCN1C(=O)[C@H](CCC(N)=O)NC(=O)[C@H](CCC(=O)O)NC(=O)c1ccc2c(c1)-c1ccccc1C(=O)C2=O)C(=O)N1CCC[C@H]1C(=O)O ({3Phenanthroyl(9,10-dioxo)}-EQPQP-OH)
CC50 [1]: > 30 µM
IC50 [2]: > 30 µM

NC(=O)CC[C@H](NC(=O)CNC(=O)[C@H](CCC(=O)O)NC(=O)CNC(=O)c1ccc2c(c1)-c1ccccc1C(=O)C2=O)C(=O)N1CCC[C@H]1C(=O)O ({3Phenanthroyl(9,10-dioxo)}-GEGQP-OH)
CC50 [1]: > 30 µM
IC50 [2]: 10.5 µM
